What was measured:
Assay type in all cases: in vivo
[1] = test system: redstem (purple redstem, Ammannia coccinea); experiment: Test F flooded paddy test; settings: Flood, after 21 d
From the text: (§1) Three plastic pots (ca. 16-cm diameter) per rate were partially filled with sterilized Tama silt loam soil comprising a 35:50:15 ratio of sand, silt and clay and 2.6% organic matter. Separate plantings for each of the three pots were as follows. Seeds from the U.S. of monochoria (Monochoria vaginalis), sedge, umbrella (small-flower umbrella sedge, Cyperus difformis) and redstem (purple redstem, Ammannia coccinea), were planted into one 16-cm pot for each rate. Seeds from the U.S. of rice flatsedge (Cyperus iria), sprangletop, Brdd. (bearded sprangletop, Leptochloa fascicularis), one stand of 9 or 10 water seeded rice seedlings (Rice, W. S. Jap, Oryza sativa cv. ‘Japonica-M202’ or Rice, W. S. Ind, ‘Indica’), and two stands of 3 or 4 transplanted rice seedlings (Oryza sativa cv. ‘Japonica-M202’) were planted into one 16-cm pot for each rate. Seeds from the U.S. of barnyardgrass (Echinochloa crus-galli), and late watergrass (Echinochloa oryzicola) were planted into one 16-cm pot for each rate.
(§2) Plantings were sequential so that crop and weed species were at the 2.0 to 2.5-leaf stage at time of treatment.
(§3) Potted plants were grown in a greenhouse with day/night temperature settings of 30/27° C., and supplemental balanced lighting was provided to maintain a 16-hour photoperiod. Test pots were maintained in the greenhouse until test completion.
(§4) At time of treatment, test pots were flooded to 3 cm above the soil surface, treated by application of test compounds directly to the paddy water, and then maintained at that water depth for the duration of the test. Effects of treatments on rice and weeds were visually evaluated by comparison to untreated controls after 21 d. Plant response ratings, summarized in Table F, are based on a scale of 0 to 100 where 0 is no effect and 100 is complete control. A dash (-) response means no test result.

[2] = test system: rice flatsedge (Cyperus iria); experiment: Test F flooded paddy test; settings: Flood, after 21 d
From the text: as §1, §2, §3, §4

[3] = test system: sedge, umbrella (small-flower umbrella sedge, Cyperus difformis); experiment: Test F flooded paddy test; settings: Flood, after 21 d
From the text: as §1, §2, §3, §4

[4] = test system: Canada thistle (Cirsium arvense); experiment: Test C postemergence greenhouse test; settings: scale 0 to 100
How it was run: (§5)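 Test chemicals in a non-phytotoxic solvent mixture with surfactant; preemergence on seeds sown in silt loam, postemergence on plants 2–18 cm tall (1- to 4-leaf stage) in peat/vermiculite medium. Greenhouse for 13–21 d, then visual rating against untreated controls, 0 (no effect) to 100 (complete control).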

[5] = test system: buckwheat, wild (Polygonum convolvulus); experiment: Test C postemergence greenhouse test; settings: scale 0 to 100
How it was run: as §5

[6] = test system: cutleaf geranium (Geranium dissectum); experiment: Test C postemergence greenhouse test; settings: scale 0 to 100
How it was run: as §5

[7] = test system: field violet (Viola arvensis); experiment: Test C postemergence greenhouse test; settings: scale 0 to 100
How it was run: as §5

[8] = test system: mustard, wild (Sinapis arvensis); experiment: Test C postemergence greenhouse test; settings: scale 0 to 100
How it was run: as §5

[9] = test system: speedwell (bird's-eye speedwell, Veronica persica); experiment: Test C postemergence greenhouse test; settings: scale 0 to 100
How it was run: as §5

[10] = test system: sprangletop, Brdd. (bearded sprangletop, Leptochloa fascicularis); experiment: Test F flooded paddy test; settings: Flood, after 21 d
From the text: as §1, §2, §3, §4

Row | SMILES | Plant response rating, Canada Thistle ([4]; 16 g ai/ha) | Plant response rating, Canada Thistle ([4]; 31 g ai/ha) | Plant response rating, Canada Thistle ([4]; 62 g ai/ha) | Plant response rating, Canada Thistle ([4]; 125 g ai/ha) | Plant response rating, Buckwheat, Wild ([5]; 16 g ai/ha) | Plant response rating, Buckwheat, Wild ([5]; 31 g ai/ha) | Plant response rating, Buckwheat, Wild ([5]; 62 g ai/ha) | Plant response rating, Buckwheat, Wild ([5]; 125 g ai/ha) | Plant response rating, Cutleaf Geranium ([6]; 16 g ai/ha) | Plant response rating, Cutleaf Geranium ([6]; 31 g ai/ha) | Plant response rating, Cutleaf Geranium ([6]; 62 g ai/ha) | Plant response rating, Cutleaf Geranium ([6]; 125 g ai/ha) | Plant response rating, Field Violet ([7]; 16 g ai/ha) | Plant response rating, Field Violet ([7]; 31 g ai/ha) | Plant response rating, Field Violet ([7]; 62 g ai/ha) | Plant response rating, Field Violet ([7]; 125 g ai/ha) | Plant response rating, Mustard, Wild ([8]; 16 g ai/ha) | Plant response rating, Mustard, Wild ([8]; 31 g ai/ha) | Plant response rating, Mustard, Wild ([8]; 62 g ai/ha) | Plant response rating, Mustard, Wild ([8]; 125 g ai/ha) | also measured
1 | Cc1ccc2ccc(C)c(-c3c(O)c(Cl)nn(C)c3=O)c2c1 [Cpd. No. 20, 6-chloro-4-(2,7-dimethyl-1-naphthalenyl)-5-hydroxy-2-methyl-3(2H)-pyridazinone] | – | – | – | – | – | – | – | – | – | – | – | – | – | – | – | – | – | – | – | – | Plant response rating (0 to 100 scale) ([1]; 31 g ai/ha): 0; Plant response rating (0 to 100 scale) ([1]; 62 g ai/ha): 0; Plant response rating (0 to 100 scale) ([1]; 125 g ai/ha): 92; Plant response rating (0 to 100 scale) ([1]; 250 g ai/ha): 99; Plant response rating (0 to 100 scale) ([2]; 31 g ai/ha): 70; Plant response rating (0 to 100 scale) ([2]; 62 g ai/ha): 85; Plant response rating (0 to 100 scale) ([2]; 125 g ai/ha): 97; Plant response rating (0 to 100 scale) ([2]; 250 g ai/ha): 100; Plant response rating (0 to 100 scale) ([3]; 31 g ai/ha): 0; Plant response rating (0 to 100 scale) ([3]; 62 g ai/ha): 60; Plant response rating (0 to 100 scale) ([3]; 125 g ai/ha): 95; Plant response rating (0 to 100 scale) ([3]; 250 g ai/ha): 100
2 | Cc1ccc2ccc(Cl)cc2c1-c1c(O)c(Cl)nn(C)c1=O [Cpd. No. 22] | 80 | 80 | 100 | 100 | 95 | 100 | 100 | 100 | 70 | 80 | 85 | 85 | 60 | 70 | 75 | 80 | 75 | 75 | 100 | 100 | Plant response rating, Speedwell ([9]; 16 g ai/ha): 50; Plant response rating, Speedwell ([9]; 31 g ai/ha): 60; Plant response rating, Speedwell ([9]; 62 g ai/ha): 75; Plant response rating, Speedwell ([9]; 125 g ai/ha): 90
3 | Cc1cc(Cl)c2ccccc2c1-c1c(O)c(Cl)nn(C)c1=O [Cpd. No. 65] | 80 | 90 | 98 | 90 | 100 | 100 | 100 | 100 | 85 | 90 | 95 | 95 | 70 | 80 | 85 | 85 | 98 | 100 | 100 | 100 | Plant response rating, Speedwell ([9]; 16 g ai/ha): 55; Plant response rating, Speedwell ([9]; 31 g ai/ha): 65; Plant response rating, Speedwell ([9]; 62 g ai/ha): 75; Plant response rating, Speedwell ([9]; 125 g ai/ha): 90; Plant response rating (0 to 100 scale) ([10]; 64 g ai/ha): 98; Plant response rating (0 to 100 scale) ([10]; 125 g ai/ha): 100
